Several values for one entry are separate records, joined by “and”; a condition that tells them apart may be missing. Equal values may be shown once.
Experiments:
[1] = Dynamic Vapour Sorption (DVS); format: physicochemical
Procedure: The samples was weighed in a glass pan, typically 20-30 mg, and equilibrated at 0% relative humidity (RH). After the material had dried, the RH was increased with 10% per step for 1 hour per increment, ending at […].
The software used for data collection was DVSWin v3.01 No Video. Data analysis was performed using DVS Standard Analysis Suite v6.3.0 (Standard).
After completion of sorption cycle, the material was dried. XRPD was performed before and after DVS.

Bulk and tapped density = format: physicochemical
Source text: Measurements of tapped and bulk densities are used to predict the flow properties and compressibility of powders. These two properties are important for manufacture of solid dosage formulations, such as tablets and capsules. Compounds with low values of tapped and bulk densities may be subject to difficulties in tablet compression, and therefore may require additional processing for improving flow properties. […] Therefore, to improve flow properties a wet granulation process is used prior to tablet compression.

[2] = Fill weight of size 00 HPMC capsule; format: physicochemical; conditions: hard HPMC capsule size 00, filled as is without tapping
Source text: Aramchol (free acid), and the three salts were filled as are, into hard HPMC (Hypromellose; Capsule size 00 (CapsCanada, ON, Canada) without taping, fill weight is presented in table 9.

[3] = In vivo permeability / PK after intrajejunal administration in cannulated rats (Example 7); parameters: species or system male Wistar rats; conditions: rat
Procedure: An in vivo permeability study of Aramchol salts was performed in male Wistar rats cannulated in the jugular vein and in the jejunum. Intestinal cannulation was performed in order to bypass protonation of Aramchol salts in acidic gastric pH. Aramchol salts solubilized in PBS (30 mg/mL) were administered to rats intestine (jejunum) in a dose of 100 mg/kg (based on free acid), via a cannula inserted into the proximal side of the jejunum. A suspension of Aramchol free acid (in PBS, 30 mg/mL) was administered via the same route and was used as control. Blood samples were withdrawn via a cannula inserted into jugular vein at pre-determined time points (pre-dose, 1 hr, 2 hr, 4 hr, 8 hr, 12 hr, 24 hr post dose). Plasma concentrations of Aramchol (free acid) were measured using a liquid chromatography-tandem mass spectrometry (LC-MS-MS) method by Analyst Bioanalytical Laboratories, Israel. All PK parameters were calculated using non-compartmental analysis. Only those plasma concentrations equal to or greater than the lower limit of quantitation (LOQ) (48.66 ng/mL) were used in the analysis. Plasma concentrations <LOQ that occurred from pre-dose to the first concentration ≥LOQ were treated as 0. Actual sampling times were used for all pharmacokinetic analyses. The following PK parameters were calculated: maximum plasma concentration (Cmax), time to Cmax (Tmax), area under the plasma concentration-time curve from time of administration until the last plasma concentration (AUC0-4), AUC/dose, elimination half-life (t½). Cmax and Tmax were taken directly from the data. Area under the curve from zero to the final sample with a concentration ≥LOQ. AUC0-4 was calculated using the linear trapezoidal method.

[4] = Pharmacokinetics of capsules in dogs, single dose and BID (Example 8); conditions: dogs
Procedure: Capsules containing 100 mg of Aramchol were dosed to dogs as either the free acid or the meglumine salt.
The complete data-set across all animals and time-points for each dose form (free acid or meglumine salt) were fit to single compartment PK models with first order rate of absorption Ka (h−1) and elimination parameterised by CL and V (rate of elimination=CL/V, h−1). For the meglumine salt group, the first dose data for M5 was removed.
Capsules containing 100 mg of Aramchol were dosed to dogs as either the free acid or the meglumine salt BID. […] A clinical study that investigated the plasma concentration of Aramchol after oral dosing of 300 mg BID at steady state was conducted in 16 healthy volunteers.

[5] = Twice daily administration for 10 days of Aramchol and Aramchol meglumine in humans (Example 9); format: in vivo; conditions: free acid 300 mg, meglumine salt 383 mg
Procedure: 300 mg aramchol free acid were administered to human subjects twice daily, and 383 mg aramchol meglumine salt were administered to human subjects twice daily, as detailed in FIG. 13.

[6] = water
[7] = Mathematical extrapolation of dog data to humans for meglumine salt
[8] = 100 mg/kg, mean ± standard error
[9] = capsule, Day 1, individual animals, listed as Aramchol meglumine salt
[10] = capsule, Day 1 single dose, Mean
[11] = capsule, Day 11, individual animals, listed as Aramchol meglumine salt
[12] = capsule, Day 11 final dose after BID dosing, Mean
[13] = humans, prediction using % CV 24.3

In the case of “3β-arachidylamido-7α,12α-dihydroxy-5β-cholan-24-oic acid N-methylglucamine salt”, the “total mass uptake (DVS)” value ([1]; Example 4 material, sorption to 95% RH, […]) is reported as 16%, the “Mass uptake (DVS)” value ([1]; RH raised from 0% in 10% steps to 95% RH, stepwise, reversible) is reported as 14.9% (stepwise; reversible) and the Bulk density (Bulk and tapped density) is reported as 0.57 g/mL. The Tapped density (Bulk and tapped density) was 0.66 g/mL, the “fill weight of one 00 size capsule” value [2] was 0.30 gram and the “increase in Cmax compared to Aramchol free acid” value [3] was 3.6 fold. The Cmax ([3]; 100 mg/kg (based on free acid) in PBS 30 mg/mL, plasma Aramchol (free acid), mean ± standard error) was 5012.1 ± 1879.9 (5) ng/mL, the “AUC(0-t)” value [3, 8] was 33625.2 ± 9567.7 (5) hr × ng/mL and the AUC/dose [3, 8] was 331.7 ± 82.5 (5) hr × ng × kg/mL × mg. For the same substance, the t1/2 [3, 8] was 5.2 ± 1.0 (5) hr, the Tmax ([3]; 100 mg/kg, median) was 4.0 (5) [2-4] hr and the “higher plasma exposure than free acid at the same molar dose” value [4] was 26%. The AUCss ([4]; 100 mg BID capsules, AUC 0-72 h from last administration on day 11, N = 3) was 1,143,428 ng*h/mL, the Cmax ([4]; capsule 100 mg Aramchol, Day 1 single dose, Mean) was 4880 ng/mL and the Cmax ([4]; capsule, Day 1, individual animals (1M-3M free acid, 4M-6M meglumine salt), listed as Aramchol meglumine salt) was 5770 ng/mL and 1720 ng/mL and 7160 ng/mL. For the same substance, the AUC0-12 [4, 9] was 34.8 µg·h/mL and 3.8 µg·h/mL and 53.2 µg·h/mL, the AUCinf [4, 9] was 205 µg·h/mL and 66.9 µg·h/mL and 440 µg·h/mL and the Half-life [4, 9] was 19.2 h and 23.1 h and 26.1 h. The Tmax [4, 9] was 12 h and 24 h, the AUC0-12 [4, 10] was 30.6 µg·h/mL and the AUCinf [4, 10] was 237 µg·h/mL. For the same substance, the Half-life [4, 10] was 22.8 h, the Tmax [4, 10] was 20 h and the AUC0-12 [4, 11] was 365 µg·h/mL and 302 µg·h/mL and 315 µg·h/mL. The AUCinf [4, 11] was 1600 µg·h/mL and 1150 µg·h/mL and 1590 µg·h/mL, the Cmax [4, 11] was 37600 ng/mL and 38800 ng/mL and 28300 ng/mL and the Half-life [4, 11] was 29.6 h and 28.9 h and 35.3 h. The Tmax [4, 11] was 8 h and 4 h, the AUC0-12 [4, 12] was 328 µg·h/mL and the AUCinf [4, 12] was 1450 µg·h/mL. For the same substance, the Cmax [4, 12] was 34900 ng/mL, the Half-life [4, 12] was 31.3 h and the Tmax [4, 12] was 6.67 h. The “greater exposure using the salt (from model Cl)” value ([4]; compartmental modelling) was 28%, the “AUCinf from day 11 onwards” value ([4]; final dose day 11) was 1450 µg·h/mL and the “AUC0-12 D11” value ([4]; final dose day 11, steady state) was 328 µg·h/mL. The “AUCinf D1” value ([4]; first dose day 1, all animals) was 237 µg·h/mL, the “AUCinf D1” value ([4]; first dose day 1, animal 5M (M5) excluded) was 323 µg·h/mL and the Cl ([4]; single compartment PK model) was 320. The “AUCinf higher than the free acid” value ([4]; single dose day 1, animal 5M excluded) was 34%, the “AUCss 0-12 h” value ([5]; BID for 10 days) was 109 µg·h/mL and the Cavg ([5]; BID for 10 days, listed as 3β-arachidylamido-7α,12α-dihydroxy-5β-cholan-24-oic acid-meglumine salt) was 8,318 ng/ml. The Cavg ([5]; BID for 10 days, listed as Aramchol Meglumine) was 8318 ng/mL, the Cavg ([5]; BID for 10 days, listed as aramchol meglumine salt) was 8318 ng/mL and the AUCss ([5]; BID) was 109,000 ng*h/mL. For the same substance, the “Dissolved (50 in g in 1) at 50° C.” value ([6]; Aramchol free acid and base 1:1, 50° C.) was “Yes”, the “salt remains in solution after cooling to 20° C.” value ([6]; cooled to 20° C.) was “no” and the AUCss [7] was 144,295 ng*h/mL. The AUCss ([7]; embodiment, b22 and b98 say the value pertains to dogs) was 144,295 ng*h/mL, the maximum plasma exposure [7, 13] was 179.382 µg·h/mL and the minimum plasma exposure [7, 13] was 109.208 µg·h/mL.

Reference: patent US20210230213A1, “ARAMCHOL SALTS” (GALMED RESEARCH AND DEVELOPMENT LTD., priority 2013, published 2021)
